Experimental data taken from ChEMBL document CHEMBL1159126, “Salicylanilide carbamates: antitubercular agents active against multidrug-resistant Mycobacterium tuberculosis strains” (Bioorg Med Chem, 2010).
Converted amounts (≈) assume the structure as drawn.

Assays:
[1] = test system: Mycobacterium avium; experiment: Antimycobacterial activity against Mycobacterium avium 330/88 after 21 days by micromethod; type: functional; conditions: 330/88, 504 h
[2] = test system: Mycobacterium kansasii; experiment: Antimycobacterial activity against Mycobacterium kansasii 235/80 after 14 days by micromethod; type: functional; conditions: 235/80, 336 h
[3] = test system: Mycobacterium kansasii; experiment: Antimycobacterial activity against Mycobacterium kansasii 235/80 after 21 days by micromethod; type: functional; conditions: 235/80, 504 h
[4] = Partition coefficient, log P of the compound; type: physicochemical; conditions: octanol/water
[5] = test system: Mycobacterium kansasii; experiment: Antimycobacterial activity against Mycobacterium kansasii 6509/96 after 14 days by micromethod; type: functional; conditions: 6509/96, 336 h
[6] = test system: Mycobacterium kansasii; experiment: Antimycobacterial activity against Mycobacterium kansasii 6509/96 after 21 days by micromethod; type: functional; conditions: 6509/96, 504 h
[7] = test system: Mycobacterium avium; experiment: Antimycobacterial activity against Mycobacterium avium 330/88 after 14 days by micromethod; type: functional; conditions: 330/88, 336 h
[8] = test system: Mycobacterium tuberculosis; experiment: microbe, parasite or virus in culture; conditions: 331/88, 336 h
Description: Antimycobacterial activity against Mycobacterium tuberculosis 331/88 after 14 days by micromethod

[9] = test system: Mycobacterium tuberculosis; experiment: microbe, parasite or virus in culture; conditions: 331/88, 504 h
Description: Antimycobacterial activity against Mycobacterium tuberculosis 331/88 after 21 days by micromethod

[10] = Toxicity against human HCT8 cells after 72 hrs by XTT assay; type: cell-based, HCT-8

With `CCCCCCCCCNC(=O)Oc1ccc(Cl)cc1C(=O)Nc1ccc(Cl)cc1` the MIC [1] was 16 µM (≈ 7.22 µg/mL), the MIC [2] was 4 µM (≈ 1.81 µg/mL) and the MIC [3] was 4 µM (≈ 1.81 µg/mL). The logP [4] was 6.78, the MIC [5] was 4 µM (≈ 1.81 µg/mL) and the MIC [6] was 4 µM (≈ 1.81 µg/mL). It also gave an MIC [7] of 8 µM (≈ 3.61 µg/mL), an MIC [8] of 2 µM (≈ 0.903 µg/mL) and an MIC [9] of 2 µM (≈ 0.903 µg/mL).
For `CCCCCCCCCCNC(=O)Oc1ccc(Cl)cc1C(=O)Nc1ccc(Cl)cc1`, the MIC [1] was 8 µM (≈ 3.72 µg/mL), the MIC [2] was 8 µM (≈ 3.72 µg/mL) and the MIC [3] was 8 µM (≈ 3.72 µg/mL). It also gave a logP [4] of 7.19, an MIC [5] of 8 µM (≈ 3.72 µg/mL) and an MIC [6] of 8 µM (≈ 3.72 µg/mL). The MIC [7] was 8 µM (≈ 3.72 µg/mL), the MIC [8] was 2 µM (≈ 0.931 µg/mL) and the MIC [9] was 2 µM (≈ 0.931 µg/mL).
In the case of `CCCCCCCNC(=O)Oc1ccc(Cl)cc1C(=O)Nc1ccc(Cl)cc1`, the MIC [1] is reported as 8 µM (≈ 3.39 µg/mL), the MIC [2] is reported as 8 µM (≈ 3.39 µg/mL) and the MIC [3] is reported as 8 µM (≈ 3.39 µg/mL). It also gave a logP [4] of 5.94, an MIC [5] of 4 µM (≈ 1.69 µg/mL) and an MIC [6] of 4 µM (≈ 1.69 µg/mL). The MIC [7] was 8 µM (≈ 3.39 µg/mL), the MIC [8] was 2 µM (≈ 0.847 µg/mL) and the MIC [9] was 2 µM (≈ 0.847 µg/mL).
With `CCCCCCCNC(=O)Oc1ccc(Cl)cc1C(=O)Nc1cccc(Cl)c1` the MIC [1] was 8 µM (≈ 3.39 µg/mL), the MIC [2] was 4 µM (≈ 1.69 µg/mL) and the MIC [3] was 8 µM (≈ 3.39 µg/mL). It also gave a logP [4] of 5.94, an MIC [5] of 8 µM (≈ 3.39 µg/mL) and an MIC [6] of 8 µM (≈ 3.39 µg/mL). The MIC [7] was 8 µM (≈ 3.39 µg/mL), the MIC [8] was 1 µM (≈ 0.423 µg/mL) and the MIC [9] was 2 µM (≈ 0.847 µg/mL).
`CCCCCCCNC(=O)Oc1ccc(Cl)cc1C(=O)Nc1ccc(Cl)c(Cl)c1` showed an MIC [1] of 8 µM (≈ 3.66 µg/mL), an MIC [2] of 2 µM (≈ 0.916 µg/mL) and an MIC [3] of 2 µM (≈ 0.916 µg/mL). For the same compound, the logP [4] was 6.5, the MIC [5] was 2 µM (≈ 0.916 µg/mL) and the MIC [6] was 4 µM (≈ 1.83 µg/mL). For the same compound, the EC50 at 72 h [10] was 43.4 µM, the MIC [7] was 4 µM (≈ 1.83 µg/mL) and the MIC [8] was 0.5 µM (≈ 0.229 µg/mL). The MIC [9] was 1 µM (≈ 0.458 µg/mL).
In the case of `CCCCCCCCNC(=O)Oc1ccc(Cl)cc1C(=O)Nc1ccc(Cl)c(Cl)c1`, the MIC [1] is reported as 8 µM (≈ 3.77 µg/mL), the MIC [2] is reported as 2 µM (≈ 0.944 µg/mL) and the MIC [3] is reported as 4 µM (≈ 1.89 µg/mL). It also gave a logP [4] of 6.92, an MIC [5] of 2 µM (≈ 0.944 µg/mL) and an MIC [6] of 4 µM (≈ 1.89 µg/mL). For the same compound, the EC50 at 72 h [10] was 48.5 µM, the MIC [7] was 4 µM (≈ 1.89 µg/mL) and the MIC [8] was 0.5 µM (≈ 0.236 µg/mL). It also gave an MIC [9] of 1 µM (≈ 0.472 µg/mL).
`CCCCCCCCCNC(=O)Oc1ccc(Cl)cc1C(=O)Nc1ccc(Cl)c(Cl)c1` gave an MIC [1] of 8 µM (≈ 3.89 µg/mL), an MIC [2] of 8 µM (≈ 3.89 µg/mL) and an MIC [3] of 8 µM (≈ 3.89 µg/mL). It also gave a logP [4] of 7.34, an MIC [5] of 4 µM (≈ 1.94 µg/mL) and an MIC [6] of 4 µM (≈ 1.94 µg/mL). It also gave an MIC [7] of 8 µM (≈ 3.89 µg/mL), an MIC [8] of 2 µM (≈ 0.972 µg/mL) and an MIC [9] of 2 µM (≈ 0.972 µg/mL).
With `CCCCCCCCNC(=O)Oc1ccc(Cl)cc1C(=O)Nc1ccc(Cl)cc1` the MIC [1] was 8 µM (≈ 3.5 µg/mL), the MIC [2] was 8 µM (≈ 3.5 µg/mL) and the MIC [3] was 8 µM (≈ 3.5 µg/mL). It also gave a logP [4] of 6.36, an MIC [5] of 4 µM (≈ 1.75 µg/mL) and an MIC [6] of 4 µM (≈ 1.75 µg/mL). The MIC [7] was 8 µM (≈ 3.5 µg/mL), the MIC [8] was 2 µM (≈ 0.875 µg/mL) and the MIC [9] was 2 µM (≈ 0.875 µg/mL).
In the case of `CCCCCCCCCCCNC(=O)Oc1ccc(Cl)cc1C(=O)Nc1cccc(Cl)c1`, the MIC [1] is reported as 8 µM (≈ 3.84 µg/mL), the MIC [2] is reported as 8 µM (≈ 3.84 µg/mL) and the MIC [3] is reported as 8 µM (≈ 3.84 µg/mL). It also gave a logP [4] of 7.61, an MIC [5] of 8 µM (≈ 3.84 µg/mL) and an MIC [6] of 8 µM (≈ 3.84 µg/mL). The MIC [7] was 8 µM (≈ 3.84 µg/mL), the MIC [8] was 2 µM (≈ 0.959 µg/mL) and the MIC [9] was 2 µM (≈ 0.959 µg/mL).
In the case of `CCCCCCCCCCNC(=O)Oc1ccc(Cl)cc1C(=O)Nc1ccc(Cl)c(Cl)c1`, the MIC [1] is reported as 8 µM (≈ 4 µg/mL), the MIC [2] is reported as 4 µM (≈ 2 µg/mL) and the MIC [3] is reported as 4 µM (≈ 2 µg/mL). For the same compound, the logP [4] was 7.77, the MIC [5] was 2 µM (≈ 1 µg/mL) and the MIC [6] was 4 µM (≈ 2 µg/mL). It also gave an MIC [7] of 8 µM (≈ 4 µg/mL), an MIC [8] of 2 µM (≈ 1 µg/mL) and an MIC [9] of 2 µM (≈ 1 µg/mL).
In the case of `CCCCNC(=O)Oc1ccc(Cl)cc1C(=O)Nc1ccc(Cl)cc1`, the MIC [1] is reported as 8 µM (≈ 3.05 µg/mL), the MIC [2] is reported as 4 µM (≈ 1.53 µg/mL) and the MIC [3] is reported as 4 µM (≈ 1.53 µg/mL). The logP [4] was 4.69, the MIC [5] was 2 µM (≈ 0.763 µg/mL) and the MIC [6] was 4 µM (≈ 1.53 µg/mL). It also gave an MIC [7] of 4 µM (≈ 1.53 µg/mL), an MIC [8] of 2 µM (≈ 0.763 µg/mL) and an MIC [9] of 2 µM (≈ 0.763 µg/mL).
Compound `CCCCCCNC(=O)Oc1ccc(Cl)cc1C(=O)Nc1cccc(Cl)c1` has an MIC [1] of 8 µM (≈ 3.27 µg/mL), an MIC [2] of 4 µM (≈ 1.64 µg/mL) and an MIC [3] of 4 µM (≈ 1.64 µg/mL). The logP [4] was 5.53, the MIC [5] was 4 µM (≈ 1.64 µg/mL) and the MIC [6] was 4 µM (≈ 1.64 µg/mL). The EC50 at 72 h [10] was 14.9 µM, the MIC [7] was 8 µM (≈ 3.27 µg/mL) and the MIC [8] was 0.5 µM (≈ 0.205 µg/mL). The MIC [9] was 1 µM (≈ 0.409 µg/mL).
In the case of `CCCCCCCCNC(=O)Oc1ccc(Cl)cc1C(=O)Nc1cccc(Cl)c1`, the MIC [1] is reported as 4 µM (≈ 1.75 µg/mL), the MIC [2] is reported as 8 µM (≈ 3.5 µg/mL) and the MIC [3] is reported as 8 µM (≈ 3.5 µg/mL). The logP [4] was 6.36, the MIC [5] was 4 µM (≈ 1.75 µg/mL) and the MIC [6] was 8 µM (≈ 3.5 µg/mL). For the same compound, the MIC [7] was 4 µM (≈ 1.75 µg/mL), the MIC [8] was 2 µM (≈ 0.875 µg/mL) and the MIC [9] was 2 µM (≈ 0.875 µg/mL).
For `NNC(=O)c1ccncc1` [ISONIAZID], the MIC [1] was greater than 250 µM, the MIC [2] was greater than 250 µM and the MIC [3] was greater than 250 µM. For the same compound, the MIC [5] was 4 µM (≈ 0.549 µg/mL), the MIC [6] was 4 µM (≈ 0.549 µg/mL) and the EC50 at 72 h [10] was greater than 100 µM. For the same compound, the MIC [7] was greater than 250 µM, the MIC [8] was 0.5 µM (≈ 0.0686 µg/mL) and the MIC [9] was 0.5 µM (≈ 0.0686 µg/mL).
